Where “and” joins values, the source holds several entries; their conditions need not be identical. Equal values may be shown once. Read-outs that look alike come from different tables or passages of the source.
How the values were obtained:
[1] = test system: human liver microsomes (HLM); experiment: Metabolic stability of voriconazole N-oxide and hydroxyvoriconazole in HLM; assay type: in vitro ADME; settings: HLM 0.2 mg/mL
Description: An incubation without HLM served as a control (n = 1).

CYP3A4 [2] = settings: cited from earlier work
CYP2C19 [3] = molecular target: T1, CYP2C19 (Homo sapiens, UniProt P33261); experiment: IC50 and IC50 shift on CYP2C19 marker reaction (S-mephenytoin 4-hydroxylation) in HLM; assay type: in vitro ADME; parameters: tissue Corning Inc; host or cells: pooled human liver microsomes (150 donors)
Description: (§1) Remaining activity (A, %) was calculated as the ratio of reaction velocities in the inhibited and non-inhibited incubations. IC50 and the steepness of the inhibition curve (H) were estimated by fitting the four-parameter inhibition model to the experimental data (Equation (9)). Maximum (Amax) and baseline activity (A0) were fixed to 100 and 0, respectively. […] (9) A,%=A0+Amax−A0/1+logCInhib/logIC50^H=100/1+logCInhib/logIC50^H […]
(§2) Supplementary Section S1. Marker reactions for CYP2C19, CYP2C9 and CYP3A4 […]
(§3) for CYP3A4 [1,2] were used to determine (i) intersystem extrapolation factors (ISEF), (ii) […]
(§4) Each probe substrate was incubated in the presence of each inhibitor. […]
(§5) were performed at concentrations of 0.2, 0.08 and 0.05 mg/mL HLM for CYP2C19, CYP2C9 and CYP3A4, respectively. IC50 and IC50 shift assays were performed at substrate […]
(§6) Reaction times were identical to those described

CYP2C9 [4] = molecular target: T2, CYP2C9 (Homo sapiens, UniProt P11712); experiment: IC50 and IC50 shift on CYP2C9 marker reaction (diclofenac 4-hydroxylation) in HLM; assay type: in vitro ADME; parameters: tissue Corning Inc; host or cells: pooled human liver microsomes (150 donors)
Description: as §1
Supplementary Section S1. […]
Two samples were taken
from each incubation after 15 and 25 min for investigations on CYP2C19, after 5 and
10 min for CYP2C9 and after 7 and 12 min for CYP3A4, respectively. […]
CYP2C9 and CYP3A4, respectively. IC50 and IC50 shift assays were performed at substrate
as §6

CYP3A4 [5] = molecular target: T3, CYP3A4 (Homo sapiens, UniProt P08684); experiment: IC50 and IC50 shift on CYP3A4 marker reaction (midazolam 1-hydroxylation) in HLM; assay type: in vitro ADME; parameters: tissue Corning Inc; host or cells: pooled human liver microsomes (150 donors); settings: for IC50 shift: human, human liver microsomes, pH 7.5, probe midazolam 1-hydroxylation (4.60 µM midazolam)
Description: as §1, §2, §3
Two samples were taken […]
from each incubation after 15 and 25 min for investigations on CYP2C19, after 5 and 10 min for CYP2C9 and after 7 and 12 min for CYP3A4, respectively. […]
CYP2C9 and CYP3A4, respectively. IC50 and IC50 shift assays were performed at substrate […]
as §6

CYP2C19 [6] = molecular target: T1, CYP2C19; experiment: Type of reversible inhibition and Ki on CYP2C19 (S-mephenytoin 4-hydroxylation) in HLM; assay type: in vitro ADME; parameters: tissue Corning Inc; host or cells: pooled human liver microsomes (150 donors)
Description: (§7) Reaction velocities were investigated in function of the substrate ([S]) and inhibitor ([I]) concentration to determine KM, Vmax and Ki of the reaction. The obtained data were used to fit the three main models of reversible inhibition, i.e., competitive (Equation (10)), noncompetitive (Equation (11)) and uncompetitive (Equation (12)) using the “nls” function in R. The type of inhibition was determined according to the best model fit assessed with Akaike’s information criteria (AIC). […] (10) V=Vmax/1+KM/S1+I/Ki (11) V=Vmax/1+KM/S1+I/Ki (12) V=Vmax/1+KM/S+I/Ki […]
as §2, §3
(§8) (i) Experiments for the determination of Michaelis-Menten kinetics in HLM were performed at protein concentrations of 0.02, 0.04 and 0.05 mg/mL for the marker reactions of CYP2C19, CYP2C9 and CYP3A4 (n = 3 each), respectively. Two samples were taken from each incubation after 15 and 25 min for investigations on CYP2C19, after 5 and 10 min for CYP2C9 and after 7 and 12 min for CYP3A4, respectively. […]
(§9) were applied as substrate concentrations. […]
as §4, §5, §6

CYP2C9 [7] = molecular target: T2, CYP2C9; experiment: Type of reversible inhibition and Ki on CYP2C9 (diclofenac 4-hydroxylation) in HLM; assay type: in vitro ADME; parameters: tissue Corning Inc; host or cells: pooled human liver microsomes (150 donors)
Description: as §7, §2, §3, §8, §9, §4, §5, §6

CYP3A4 [8] = molecular target: T3, CYP3A4; experiment: Type of reversible inhibition and Ki on CYP3A4 (midazolam 1-hydroxylation) in HLM; assay type: in vitro ADME; parameters: tissue Corning Inc; host or cells: pooled human liver microsomes (150 donors)
Description: as §7, §2, §3, §8, §9, §4, §5, §6

CYP2C19 [9] = molecular target: T1, CYP2C19; parameters: tissue Corning Inc; host or cells: pooled human liver microsomes (150 donors); settings: ref Hohmann et al. 42; cited from earlier work
CYP2C9 [10] = molecular target: T2, CYP2C9; parameters: tissue Corning Inc; host or cells: pooled human liver microsomes (150 donors); settings: ref Giri et al. 84; cited from earlier work
[11] = 30 min pre-incubation in the absence of NADPH
[12] = 30 min pre-incubation in the absence of NADPH, read-out: IC50 NADPH (−) (95% Confidence Interval)
[13] = 30 min pre-incubation in the presence of NADPH
[14] = 30 min pre-incubation in the presence of NADPH, read-out: IC50 NADPH (+) (95% Confidence Interval)

T1 sequence (P33261 whole entry): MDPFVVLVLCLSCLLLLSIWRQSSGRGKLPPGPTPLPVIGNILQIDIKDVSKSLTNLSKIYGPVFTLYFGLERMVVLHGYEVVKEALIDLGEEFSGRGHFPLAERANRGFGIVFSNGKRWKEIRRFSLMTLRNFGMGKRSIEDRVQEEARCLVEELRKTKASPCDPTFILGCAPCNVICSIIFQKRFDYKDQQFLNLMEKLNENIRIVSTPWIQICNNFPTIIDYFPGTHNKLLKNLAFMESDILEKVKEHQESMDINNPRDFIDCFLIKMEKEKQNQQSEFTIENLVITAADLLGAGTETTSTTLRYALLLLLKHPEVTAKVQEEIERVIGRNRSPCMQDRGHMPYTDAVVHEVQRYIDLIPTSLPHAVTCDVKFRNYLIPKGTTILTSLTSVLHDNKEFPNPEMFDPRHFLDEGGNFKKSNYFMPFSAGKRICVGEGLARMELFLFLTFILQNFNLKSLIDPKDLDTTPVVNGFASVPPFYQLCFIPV
T2 sequence (P11712 whole entry): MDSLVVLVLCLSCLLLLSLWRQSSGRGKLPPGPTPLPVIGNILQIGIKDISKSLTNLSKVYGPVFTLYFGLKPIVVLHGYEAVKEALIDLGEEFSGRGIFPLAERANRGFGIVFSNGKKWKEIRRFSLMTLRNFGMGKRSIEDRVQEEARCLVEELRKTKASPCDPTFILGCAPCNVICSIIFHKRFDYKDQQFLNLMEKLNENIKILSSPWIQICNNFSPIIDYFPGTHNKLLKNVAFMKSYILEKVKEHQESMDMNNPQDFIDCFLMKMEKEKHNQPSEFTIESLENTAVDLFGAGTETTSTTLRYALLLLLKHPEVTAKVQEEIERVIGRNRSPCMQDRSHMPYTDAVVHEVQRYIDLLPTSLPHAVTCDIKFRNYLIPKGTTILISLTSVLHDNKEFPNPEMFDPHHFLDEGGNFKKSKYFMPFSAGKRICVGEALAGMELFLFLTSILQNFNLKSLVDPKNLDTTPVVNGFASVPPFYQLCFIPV
T3 sequence (P08684 2-503 limits assumed): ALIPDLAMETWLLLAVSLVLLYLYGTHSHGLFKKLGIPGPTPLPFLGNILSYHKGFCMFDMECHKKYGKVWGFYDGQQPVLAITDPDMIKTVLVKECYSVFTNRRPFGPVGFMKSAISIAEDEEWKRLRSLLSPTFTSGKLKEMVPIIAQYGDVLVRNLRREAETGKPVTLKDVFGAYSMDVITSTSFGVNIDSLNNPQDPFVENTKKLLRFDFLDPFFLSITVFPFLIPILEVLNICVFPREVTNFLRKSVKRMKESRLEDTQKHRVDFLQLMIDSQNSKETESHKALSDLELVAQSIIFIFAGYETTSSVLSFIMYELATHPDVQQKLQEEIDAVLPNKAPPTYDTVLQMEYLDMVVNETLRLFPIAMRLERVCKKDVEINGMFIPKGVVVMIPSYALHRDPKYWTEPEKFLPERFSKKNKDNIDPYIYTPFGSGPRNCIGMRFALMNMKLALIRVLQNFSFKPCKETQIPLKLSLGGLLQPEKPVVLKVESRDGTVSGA

**Q.** What does the source list for `C[C@@H](c1nc[n+]([O-])cc1F)[C@](O)(Cn1cncn1)c1ccc(F)cc1F` [NO, voriconazole N-oxide]?
**A.** depletion over time when incubated directly with HLM ([1]; 5-60 min, 0.137 and 1.10 µM): no depletion; % compared to a control incubation without HLM after 60 min ([1]; high concentration (1.10 µM), single replicates): 96.9% and 109%; IC50 (CYP3A4 [2]; ref Giri et al. 84): 8.7 µM; IC50 (CYP3A4 [2]; ref Hohmann et al. 42): 146 µM; IC50 Shift NADPH (−) (CYP2C19 [3]; [11]): 0.641; IC50 (CYP2C19 [3]; [12]): > 34.2 µM; IC50 Shift NADPH (+) (CYP2C19 [3]; [13]): 0.900; IC50 (CYP2C19 [3]; [14]): > 34.2 µM; time dependence of inhibition (CYP2C19 [3]; IC50 shift assay): Time-independent inhibition; IC50 (CYP2C19 [3]; without pre-incubation, […] S-mephenytoin, HLM, NO and OH–VRC estimates exceed applied concentrations (max 34.2 µM), read-out: IC50 (95% Confidence Interval)): > 34.2 µM; IC50 (CYP2C9 [4]; [12]): 10.1 µM; IC50 (CYP2C9 [4]; [14]): 14.9 µM; time dependence of inhibition (CYP2C9 [4]; IC50 shift assay): Time-independent inhibition; IC50 shift (CYP2C9 [4]; human, human liver microsomes, pH 7.5, probe diclofenac 4-hydroxylation (4.73 µM diclofenac), 30 min pre-incubation in the absence of NADPH): 1.34; IC50 shift at 30 min (CYP2C9 [4]; human, human liver microsomes, pH 7.5, probe diclofenac (4-hydroxylation), 4.73 µM, 30 min pre-incubation in the presence of NADPH): 0.899; IC50 (CYP2C9 [4]; without pre-incubation, 4.73 µM diclofenac, HLM, read-out: IC50 (95% Confidence Interval)): 13.4 µM; IC50 (CYP3A4 [5]; [12]): 6.96 µM; IC50 Shift NADPH (+) (CYP3A4 [5]; [13]): 1.54; IC50 (CYP3A4 [5]; [14]): 2.91 µM; time dependence of inhibition (CYP3A4 [5]; IC50 shift assay): Time-independent inhibition; IC50 shift (CYP3A4 [5]; [11]): 0.644; IC50 shift (CYP3A4 [5]; [13]): > 1.5; IC50 (CYP3A4 [5]; without pre-incubation, 4.60 µM midazolam, HLM, read-out: IC50 (95% Confidence Interval)): 4.48 µM; Type of Reversible Inhibition (CYP2C19 [6]; CYP2C19, best model fit by AIC): noncompetitive; inhibitory effect on CYP2C19 relative to VRC (fold lower, from Ki) (CYP2C19 [6]; compared to VRC): 31 fold; Ki (CYP2C19 [6]; read-out: Ki (95% CI)): 58.6 µM; Type of Reversible Inhibition (CYP2C9 [7]; CYP2C9, best model fit by AIC): competitive; inhibitory effect on CYP2C9 relative to VRC (fold, from Ki) (CYP2C9 [7]; compared to VRC): 2.1 fold; Ki (CYP2C9 [7]; read-out: Ki (95% CI)): 5.47 µM; Type of Reversible Inhibition (CYP3A4 [8]; CYP3A4, best model fit by AIC): noncompetitive; Ki (CYP3A4 [8]; CYP3A4, midazolam 1-hydroxylation, HLM, read-out: Ki (95% CI)): 5.24 µM; inhibitory effect on CYP3A4 relative to VRC (fold, from Ki) (CYP3A4 [8]; compared to VRC): 1.9 fold; IC50 (CYP2C19 [9]): 40.2 µM; IC50 (CYP2C9 [10]): 11.2 µM

From publication PMC8948939 (Pharmaceutics, 2022)
